Holding throughout (assay type): cell-based, human
One experiment deals with melanocyte strain 1513c. The experiment in a line: Cell proliferation as a measure of stability, strain 1513c. The procedure: With continued reference to FIGS. 7, 8 and 9, to determine the stability of CUV9900 versus that of NDP-MSH and α-MSH, melanocytes were treated with 1 nM of each peptide, namely with CUV9900, NDP-MSH and α-MSH, for a total of 6 days, or with 1 nM peptides that were incubated for 5 hours at 37° C. prior to addition to the cultures, every other day, for a total of 6 days. Tyrosinase activity was measured at the end of treatment. In the experiments, cell number represents the mean percent of control of 3 determinations/group±SE, and tyrosinase activity data represent the mean percent of control of 6 determinations±S.E. It should be noted that for the sake of reproducibility the experiment of strain 1513c of FIG. 9 was performed once more 6 months later than the experiment of FIG. 7.
Peptides were incubated at 37 degrees Celsius for 5 hours and then split into groups. Cell proliferation was a measure of stability, whereby the experiments on strain 1513c were divided in period 1 and 2 under standard conditions.
Cell proliferation as a measure of stability is shown in Tables 1 to 3 below, wherein Table 1 is based on data derived from FIG. 7, Table 2 is based on data derived from FIG. 9, and Table 3 is based on data derived from FIG. 8: […]

The subject of the next experiment is melanocyte strain 1505b. The experiment in a line: Cell proliferation as a measure of stability, strain 1505b.
The test system of experiment [1] is melanocytic strains 1563c and 102b. Description: Ultrastructural visualization of DOPA-stained HM (electron microscopy). The conditions noted are these: 0.1 nM or 1 nM CUV9900, 1 nM MSH. On the procedure:
With reference to FIGS. 14 and 15, two melanocytic strains, a lightly pigmented strain 1563c of FIG. 14 and strain 102b of FIG. 15 were plated in 4-well chamber slides and treated […] with either 0.1 nM or 1 nM CUV9900 or 1 nM MSH for a total of 6 days. Cells were processed for electron microscopy in the presence or absence of histochemical reaction with DOPA. Microtome sections were analyzed in a JEOL JEM-1230 transmission electron microscope and photomicrographs (15,000×) of the perinuclear area and dendrites were taken for each experimental group.

A further experiment relates to melanocytes strain 1505b. The experiment in a line: Tyrosinase activity dose-response, strain 1505b. On the procedure: Dose-response experiments were carried out on another adult strain 102b which is shown in FIG. 6 and on the strain 1505b which is a melanocyte strain: melanocytes were treated with 0.001-10 nM CUV9990 or NDP-MSH, or 0.1-10 nM MSH for a total of 6 days, with the culture medium changed and fresh peptide added every other day. Cell numbers as well as tyrosinase activity were then determined. Tyrosinase activity was calculated first at activity/10^6 cells, and then as % of control. Twenty-four hours prior the end of the experiment, melanocytes received […] (0.7 μCi/ml medium). The conditioned medium from each dish was collected to be assayed for tyrosinase activity, and the cell numbers were determined using a Coulter Counter. Triplicate dishes were included in each group, and duplicate samples from each dish were assayed for tyrosinase activity. Each data point is the mean percent of control of 6 determinations/group±S.E.

A further experiment relates to melanocytes strain 1513c. Description: cAMP levels, radioimmunoassay, strain 1513c. The following applies: 45 min, 0.1 mM IBMX. On the procedure:
Dose-response experiments were carried out on three melanocytic strains, namely strains 1513c, 1505b and 105c melanocytes were treated with 1 pM-10 nM CUV9900 or NDP-MSH, or with 0.1-10 nM MSH for 45 minutes in the presence of 0.1 mM isobutyl methylxanthine (IBMX). The results obtained from strain 1513c are shown in FIG. 3, the results obtained from strain 1505b are shown in FIG. 5a and the results obtained from strain 105c are shown in FIG. 5b. The strains 1505b and 1513c were obtained from the same human adult while the strain 105c was obtained from another human adult. Cyclic AMP is the second messenger for the melanocortin-1 receptor, and assessment is usually performed indicating cellular activity reflective of melanogenesis. Cyclic AMP levels were determined using ^125I-labeled radioimmunoassay kit (Perkin Elmer, Waltham, Mass.), in human melanocytes that were treated with 0 (control), 0.1-10.0 nM α-MSH, or 0.001-10 nM NDP-MSH or 0.001-10.0 nM CUV 9900 for […]. in the presence of 0.1 mM IBMX, a phosphodiesterase inhibitor to prevent cAMP degradation. Triplicate wells were included in each group, and duplicate samples from each well were assayed for cAMP levels. Each data point is the mean percent of control of 6 determinations/group±S.E.
Background: cAMP levels reflect the balance of adenylyl cyclase and phosphodiesterase activity.

Another experiment has as its system Melanocytes. The experiment in a line: DNA damage as measured by cyclobutane pyrimidine dimers (CPD), flow cytometry. The following applies: 48 h after 105 mJ/cm^2 UV. The procedure: Cyclobutane pyrimidine dimers (CPD), the major determinant of UV-induced DNA photoproducts, were detected using flow cytometry analysis.
Melanocytes were pretreated with 0 (control), 10 nM α-MSH or 1 nM NDP-MSH or 1 nM CUV9900 for 4 days prior to, and 2 days after exposure to 105 mJ/cm^2 UV, harvested 48 hours post irradiation, fixated with 70% ethanol, the DNA denatured with 1N HCl/0.2 mg/ml pepsin, then renaturated with sodium tetraborate. Melanocytes were blocked and incubated overnight at 4° C. with the anti-CPD antibody (diluted 1:500; TDM-2 clone), then with goat anti-mouse IgG Alexa Fluor 488 (Invitrogen, Carlsbad Calif.) for 1 hour, and finally resuspended in PBS containing RNase A and propidium iodide. Melanocytes were analyzed on a Coulter EPICS XL flow cytometer (Beckman Coulter) using a 488 nm argon ion laser A 525 band pass filter was used for the Alexa fluor 488 and a 620 band pass filter for the propidium iodide.

Non-standard residues stand in square brackets, D forms with d. Nle = CCCC[C@H](N)C(=O)O

The values that follow come from US20130331331A1, “HEXAPEPTIDE WITH IMPROVED ACTIVITY IN THE REPAIR OF CELLULAR DNA OF DERMAL CELLS” (priority 2011, published 2013).

Turning to “Ac-Nle-Glu His-D-Phe-Arg-Trp-NH2 (Ac-[Nle]EH[dF]RW-NH2; SMILES CCCC[C@H](NC(C)=O)C(=O)N[C@@H](CCC(=O)O)C(=O)N[C@@H](Cc1c[nH]cn1)C(=O)N[C@H](Cc1ccccc1)C(=O)N[C@@H](CCCNC(=N)N)C(=O)N[C@@H](Cc1c[nH]c2ccccc12)C(N)=O) [CUV9900, hexapeptide alpha-MSH analogue]”, in the experiment with melanocyte strain 1513c (strain 1513c), the “more stable than MSH (cell proliferation)” value stood at 3.4% and the “more stable than NDP-MSH (cell proliferation)” value was determined as 0.65%. In addition, the “Cell proliferation (cell number), Mean” value in the experiment with melanocyte strain 1513c (strain 1513c [2], mean) was 119.9% of control. In the experiment with melanocyte strain 1505b, the “more stable in comparison to MSH (cell proliferation)” value is given as 2.6% and the “more stable than NDP-MSH (cell proliferation)” value is reported as 10.16%. For the same substance, in the experiment on melanocyte strain 1505b (1 nM), the “Cell proliferation (cell number), column 2” value was 120% of control and the “Cell proliferation (cell number), column 3” value is on record as 108% of control. Moreover, the “melanosomes and DOPA reactivity by electron microscopy” value in experiment [1] was “increased mature (stage IV) melanosomes in the perinuclear area and more so in dendrites”. The “effect on tyrosinase activity, comparison” value in the experiment on melanocytes strain 1505b is “equivalent to that of NDP-MSH”. Moreover, the “minimal effective dose, tyrosinase activity” value in the experiment on melanocytes strain 1505b (6 days treatment) is 1 pM. For the same substance, the “cAMP, potency comparison” value with melanocytes strain 1513c (0.1 nM) is reported as “more potent than NDP-MSH”. Moreover, in the experiment with melanocytes strain 1513c (10 nM), the “maximal level of cAMP, comparison” value was “higher maximal level of cAMP than MSH”. In the experiment with Melanocytes, the “CPD cellular DNA damage, comparison in words” value is “less CPD cellular DNA damage in comparison with and NDP-MSH and slightly higher values than alpha-MSH”.
